In patent US20120184583A1, “MODULATORS OF ATP-BINDING CASSETTE TRANSPORTERS” (VERTEX PHARMACEUTICALS INCORPORATED, priority 2003, published 2012):

Tests used:
[1] = biological target: T1, ΔF508-CFTR stably expressed in NIH3T3 cells (Homo sapiens, UniProt P13569, DEL508-508); experiment: Membrane potential optical (FRET/VIPR) assay for ΔF508-CFTR potentiation; type: cell-based; details: for Emax: NIH3T3, read-out: % Efficacy (relative modulating efficacy in comparison with genistein), normalized to peak genistein response
T1 construct: expressed in transfected cells
T1 sequence (P13569 with tags, fused parts or gaps DEL508-508): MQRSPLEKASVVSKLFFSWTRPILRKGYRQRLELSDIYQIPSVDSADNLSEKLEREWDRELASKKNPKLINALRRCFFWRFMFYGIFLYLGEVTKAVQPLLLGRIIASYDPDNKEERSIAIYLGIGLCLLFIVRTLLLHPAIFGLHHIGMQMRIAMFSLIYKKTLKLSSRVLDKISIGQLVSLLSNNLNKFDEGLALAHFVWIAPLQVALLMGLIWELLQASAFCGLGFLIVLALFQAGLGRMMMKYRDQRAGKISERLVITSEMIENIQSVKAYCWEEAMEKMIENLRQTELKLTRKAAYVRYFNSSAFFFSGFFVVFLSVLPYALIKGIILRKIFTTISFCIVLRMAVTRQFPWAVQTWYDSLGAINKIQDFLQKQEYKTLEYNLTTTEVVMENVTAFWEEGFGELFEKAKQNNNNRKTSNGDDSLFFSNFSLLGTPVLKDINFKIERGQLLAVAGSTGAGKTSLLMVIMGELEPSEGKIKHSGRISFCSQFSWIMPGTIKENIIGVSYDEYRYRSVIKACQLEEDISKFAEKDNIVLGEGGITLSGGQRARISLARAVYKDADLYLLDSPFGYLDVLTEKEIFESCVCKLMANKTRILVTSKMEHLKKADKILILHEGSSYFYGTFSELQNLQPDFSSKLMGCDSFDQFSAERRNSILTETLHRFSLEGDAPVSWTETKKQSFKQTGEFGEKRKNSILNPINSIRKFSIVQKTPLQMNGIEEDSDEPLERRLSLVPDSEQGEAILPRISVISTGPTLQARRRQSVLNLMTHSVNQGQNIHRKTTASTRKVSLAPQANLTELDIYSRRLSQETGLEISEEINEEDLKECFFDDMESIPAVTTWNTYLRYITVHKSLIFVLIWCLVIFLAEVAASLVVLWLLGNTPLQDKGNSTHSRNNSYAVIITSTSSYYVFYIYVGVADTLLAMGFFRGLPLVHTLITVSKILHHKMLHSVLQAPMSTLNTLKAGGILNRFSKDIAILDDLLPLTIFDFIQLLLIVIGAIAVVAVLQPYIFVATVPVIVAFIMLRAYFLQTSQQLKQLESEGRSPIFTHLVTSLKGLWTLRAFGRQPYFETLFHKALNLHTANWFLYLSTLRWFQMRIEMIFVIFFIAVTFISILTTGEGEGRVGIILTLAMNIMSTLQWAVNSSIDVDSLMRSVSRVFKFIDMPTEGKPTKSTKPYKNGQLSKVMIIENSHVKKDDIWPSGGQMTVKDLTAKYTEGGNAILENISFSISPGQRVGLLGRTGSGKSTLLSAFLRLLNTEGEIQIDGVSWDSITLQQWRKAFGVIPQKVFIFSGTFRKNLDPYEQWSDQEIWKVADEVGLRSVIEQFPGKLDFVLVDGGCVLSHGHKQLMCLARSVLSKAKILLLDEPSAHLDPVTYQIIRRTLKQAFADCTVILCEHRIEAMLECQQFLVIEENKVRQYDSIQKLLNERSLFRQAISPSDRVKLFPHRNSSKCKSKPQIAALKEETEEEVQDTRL
Excerpt: Membrane potential optical methods for assaying ΔF508-CFTR potentiation properties of compounds.
These voltage sensitive assays are based on the change in fluorescence resonant energy transfer (FRET) between the membrane-soluble, voltage-sensitive dye, DiSBAC2(3), and a fluorescent phospholipid, CC2-DMPE, which is attached to the outer leaflet of the plasma membrane and acts as a FRET donor. Changes in membrane potential (Vm) cause the negatively charged DiSBAC2(3) to redistribute across the plasma membrane and the amount of energy transfer from CC2-DMPE changes accordingly. The changes in fluorescence emission were monitored using VIPR™ II, which is an integrated liquid handler and fluorescent detector designed to conduct cell-based screens in 96- or 384-well microtiter plates.
To identify potentiators of ΔF508-CFTR, a double-addition HTS assay format was developed (FIG. 1A). During the first addition, a Cl^−-free medium with or without test compound was added to each well. After 22 sec, a second addition of Cl^−-free medium containing 2-10 μM forskolin was added to activate ΔF508-CFTR. The extracellular Cl^− concentration following both additions was 28 mM, which promoted Cl^− efflux in response to ΔF508-CFTR activation and the resulting membrane depolarization was optically monitored using the FRET-based voltage-sensor dyes. The double-addition format has several advantages. First, it enables separation of compounds that act independently of forskolin-activated ΔF508-CFTR. Second, it allows compounds that act from the cytoplasmic surface of the channel to cross the plasma membrane and take effect. Lastly, fluorescent changes that arise from test compound addition alone can be identified.
High-throughput assay format for identifying potentiators of ΔF508-CFTR stably expressed in NIH3T3 cells.
FIG. 1A: Double-addition assay format in which Cl^−-free medium was added with or without the test compound prior to forskolin addition. The cells were incubated at 27° C. for 16-24 hr prior to use.
• Bath Solution #1: (in mM)NaCl 160, KCl 4.5, CaCl2 2, MgCl2 1, HEPES 10, pH 7.4 with NaOH. • Chloride-free bath solution: Chloride salts in Bath Solution #1 are substituted with gluconate salts. • CC2-DMPE: Prepared as a 10 mM stock solution in DMSO and stored at −20° C. • DiSBAC2(3): Prepared as a 10 mM stock in DMSO and stored at −20° C.
NIH3T3 mouse fibroblasts stably expressing ΔF508-CFTR are used for optical measurements of membrane potential. The cells are maintained at 37° C. in 5% CO2 and 90% humidity in Dulbecco's modified Eagle's medium supplemented with 2 mM glutamine, 10% fetal bovine serum, 1×NEAA, β-ME, 1×pen/strep, and 25 mM HEPES in 175 cm^2 culture flasks. For all optical assays, the cells were seeded at 30,000/well in 384-well matrigel-coated plates and cultured for 2 hrs at 37° C. before culturing at 27° C. for 24 hrs.

[2] = biological target: T2, ΔF508-CFTR expressed in FRT epithelial cells (Homo sapiens, UniProt P13569, DEL508-508); experiment: Ussing chamber assay, short-circuit current in FRT epithelia; type: cell-based
T2 construct: expressed in transfected cells; host or cells: Fisher rat epithelial (FRT) cells, vector-infected
T2 sequence (P13569 with tags, fused parts or gaps DEL508-508): as above
Procedure: FRT^ΔF508-CFTR epithelial cells grown on Costar Snapwell cell culture inserts were mounted in an Ussing chamber (Physiologic Instruments, Inc., San Diego, Calif.), and the monolayers were continuously short-circuited using a Voltage-clamp System (Department of Bioengineering, University of Iowa, Iowa, and, Physiologic Instruments, Inc., San Diego, Calif.). Transepithelial resistance was measured by applying a 2-mV pulse. […] Typical protocol utilized a basolateral to apical membrane Cl^− concentration gradient. To set up this gradient, normal ringers was used on the basolateral membrane and was permeabilized with nystatin (360 μg/ml), whereas apical NaCl was replaced by equimolar sodium gluconate (titrated to pH 7.4 with NaOH) to give a large Cl concentration gradient across the epithelium. All experiments were performed 30 min after nystatin permeabilization. The solutions were maintained at 27° C. and bubbled with air. The electrode offset potential and fluid resistance were corrected using a cell-free insert. Under these conditions, the current reflects the flow of Cl^− through ΔF508-CFTR expressed in the apical membrane. The ISC was digitally acquired using an MP100A-CE interface and AcqKnowledge software (version 3.2.6; BIOPAC Systems, Santa Barbara, Calif.). Forskolin (10 μM) and all test compounds were added to both sides of the cell culture inserts. […]

Structure (SMILES) | Emax [1] [%] | other results
Cc1ccc(O)c(-c2cc(-c3ccncc3)n[nH]2)c1 [IA-93] | 35 to 75 | –
COc1ccccc1-c1cc(-c2cc(C)ccc2O)[nH]n1 [IA-94] | 35 to 75 | –
Cc1ccc(O)c(-c2cc(-c3nc(C)c(-c4ccc5c(c4)OCC5)s3)n[nH]2)c1 [IA-95] | 35 to 75 | –
O=[N+]([O-])c1ccccc1-c1cc(-c2ccccc2O)n[nH]1 [IA-97] | 35 to 75 | –
Oc1ccccc1-c1cc(-c2ccc(C(F)(F)F)cc2F)n[nH]1 [IA-98] | 35 to 75 | –
COc1ccc(-c2cc(-c3cc(C)ccc3O)n[nH]2)c(F)c1 [IA-99] | 35 to 75 | –
COc1ccc(-c2cc(-c3ccc(C)cc3O)n[nH]2)cc1 [IA-100] | 35 to 75 | –
CCOc1ncccc1-c1cc(-c2ccccc2O)[nH]n1 [IA-101] | 35 to 75 | –
Cc1ccc(O)c(-c2cc(-c3ccc([N+](=O)[O-])cc3)n[nH]2)c1 [IA-102] | 35 to 75 | –
Cc1ccc(O)c(-c2cc(-c3ccc(C(F)(F)F)cc3)[nH]n2)c1 [IA-103] | < 35 | –
Cc1ccc(O)c(-c2cc(-c3ccc(F)cc3)[nH]n2)c1 [IA-104] | 35 to 75 | –
Cc1ccc(O)c(-c2cc(-c3c(Cl)cccc3Cl)n[nH]2)c1 [IA-105] | 35 to 75 | –
Cc1ccc(-c2cc(-c3cccc(F)c3)[nH]n2)c(O)c1 [IA-106] | 35 to 75 | –
Cc1ccc(O)c(-c2cc(-c3cc(C)on3)n[nH]2)c1 [IA-107] | 35 to 75 | –
Oc1ccccc1-c1cc(-c2ccccc2Cl)[nH]n1 [IA-113] | – | % Efficacy (relative modulating efficacy in comparison with genistein) ([1]; normalized to peak genistein response): + (an efficacy range of <35% when compared to genistein)
O=[N+]([O-])c1ccc(-c2cc(-c3cc(C(F)(F)F)ccc3O)[nH]n2)cc1 [IA-114] | 35 to 75 | –
Cc1ccc(O)c(-c2cc(-c3cc(Cl)ccc3F)n[nH]2)c1 [IA-115] | < 35 | –
O=c1c(-c2ccc(O)cc2)coc2cc(O)cc(O)c12 [genistein, reference compound] | – | effect on forskolin-induced membrane depolarization [1]: augmented; membrane potential response in the absence of forskolin addition ([1]; data not shown): no response; potentiation of the forskolin-induced response ([1]; optical assay, n=35): 72.8±7.2%; ISC potentiated to ([2]; genistein 50 μM added after forskolin 10 μM, n=8): 21±1.5 μA/cm^2; stimulation of ISC when applied prior to forskolin addition ([2]; no forskolin, data not shown): did not stimulate
